The values that follow come from article PMC4389443 (Respiratory Research, 2015).

In data set [1] the target is T1, Recombinant lysyl oxidase like 2 (Homo sapiens, UniProt Q9Y4K0).
T1 construct: purchased R&D systems
T1 sequence (Q9Y4K0 26-774): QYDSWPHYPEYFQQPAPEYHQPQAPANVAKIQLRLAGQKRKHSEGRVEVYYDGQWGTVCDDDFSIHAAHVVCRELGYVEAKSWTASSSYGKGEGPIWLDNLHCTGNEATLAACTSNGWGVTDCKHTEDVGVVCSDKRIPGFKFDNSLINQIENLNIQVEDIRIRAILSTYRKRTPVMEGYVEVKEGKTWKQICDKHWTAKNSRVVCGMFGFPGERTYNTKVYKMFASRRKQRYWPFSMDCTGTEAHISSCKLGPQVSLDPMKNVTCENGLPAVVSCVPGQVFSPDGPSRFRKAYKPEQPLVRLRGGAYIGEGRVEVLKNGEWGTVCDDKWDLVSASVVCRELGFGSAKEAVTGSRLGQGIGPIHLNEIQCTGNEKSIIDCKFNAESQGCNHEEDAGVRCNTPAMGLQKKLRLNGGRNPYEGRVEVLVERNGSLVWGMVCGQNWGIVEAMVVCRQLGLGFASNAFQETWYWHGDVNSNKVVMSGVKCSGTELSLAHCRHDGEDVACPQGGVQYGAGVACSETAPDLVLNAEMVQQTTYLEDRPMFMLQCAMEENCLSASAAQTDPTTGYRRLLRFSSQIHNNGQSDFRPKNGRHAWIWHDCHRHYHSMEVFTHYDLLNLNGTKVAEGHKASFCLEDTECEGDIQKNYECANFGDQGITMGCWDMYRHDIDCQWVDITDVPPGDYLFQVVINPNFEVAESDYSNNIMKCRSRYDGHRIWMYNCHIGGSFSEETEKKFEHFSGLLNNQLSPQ
Briefly: LOXL2 fluorometric enzyme activity assay. Type of data set: biochemical. The procedure: rhLOXL2 (lysyl oxidase like 2) was purchased from R&D systems and assay was performed in 1.2 M urea, 50 mM sodium borate buffer, pH 8.2. The substrate used was 10 mM putrescine and 100 μM of β-aminopropionitrile (βAPN, Sigma-Aldrich) was added to the low controls.

The target in a further data set is carbonic anhydrase II (Homo sapiens, UniProt P00918). As to the kind of experiment: Carbonic anhydrase II activity. In kind it is biochemical.
The nature of data set [2]: Plasma stability. The following applies: human plasma, 1 hour incubation. In kind it is in vitro ADME.
Data set [3] can be described thus: Plasma stability. Type of data set: in vitro ADME. The note with it: rat plasma, 1 hour incubation.
A further data set can be described thus: Water solubility. In kind it is physicochemical.
The nature of data set [4]: Pharmacokinetics in BALB/c mice. The following applies: mouse; for Cmax: read-out: Apparent concentration at curve maximum Cmax. In kind it is in vivo. The procedure: Studies were performed by ICP Firefly, Pharmalegacy and Sundia with local ethics approval. […] Plasma was analyzed for PXS-4728A by high-performance liquid chromatography-mass spectrometry/mass spectrometry. Basic pharmacokinetic parameters were estimated using PK Solutions software (Summit Research Services).

Data set [5] deals with over 100 different macromolecular targets. Briefly: Off-target activity, Ricerca lead seeker selectivity panel. The note with it: other amine oxidases or over 100 different macromolecular targets.
Data set [6] concerns BALB/c mice. Briefly: CXCL1/KC induced cremaster inflammation, intravital microscopy. In kind it is in vivo, mouse. The note with it: 6 mg.kg^−1 oral, 1 hour prior to rCXCL1. Here is the method: BALB/c mice were anesthetized and 500 ng of murine rCXCL1 in 0.2 ml of saline was administered locally by s.c. injection beneath the right scrotal skin using a 30-G needle, 2 hours before exteriorization. The left cremaster was then prepared for intravital microscopy, as previously described. Briefly, an incision was made in the scrotal skin to expose the left cremaster muscle, which was then carefully removed from the associated fascia. A lengthwise incision was made on the ventral surface of the cremaster muscle using a cautery. The testicle and the epididymis were separated from the underlying muscle and were moved into the abdominal cavity. The muscle was then spread out over an optically clear viewing pedestal and was secured along the edges with a 4–0 suture. […] A video camera (CDD; Sony) was used to project the images onto a monitor, and the images were recorded for playback analysis using a conventional DVD. […] The number of rolling and adherent leukocytes was determined offline during video playback analysis. […] The flux of rolling cells was measured as the number of rolling cells passing by a given point in the venule per minute. A leukocyte was considered to be adherent if it remained stationary for at least 30 s, and total leukocyte adhesion was quantified as the number of adherent cells within a 100 μm length of venule.

The test system of data set [7] is BALB/c mice. Briefly: LPS airway inflammation, 6 hour time point. The note with it: 6 hours after LPS.

A word on the IC50: it is the concentration that gives 50% inhibition. In general, solubility refers to how much of the substance goes into solution per volume. A word on the bioavailability: it is dose-corrected exposure relative to a reference, in per cent. High values mean much systemic uptake, low ones little systemic uptake. Usually clearance stands for the rate of elimination divided by the concentration.

Entries after “also recorded” stand apart in the source; their conditions may differ. Where two headings read alike, the source gives them in different places. Some results are limits rather than exact numbers.

Turning to `CC(C)(C)NC(=O)c1ccc(OC/C(=C/F)CN)cc1` [PXS-4728A], the IC50 in [1] was 10.4 µM. The “Activity for carbonic anhydrase II” value at carbonic anhydrase II is given as “removing all activity”. The “Plasma stability, remaining” value in the data set “Plasma stability [2]” and in the data set “Plasma stability [3]” was > 90% in each case. Moreover, the solubility in the data set “Water solubility” (Figure 1, read-out: Solubility (H2O)) is > 10000 µg/mL; in the data set “Water solubility” (pH 7.4, aqueous buffer, read-out: Water solubility), > 10000 µg/mL. Also, the bioavailability in data set [4] (BALB/c, plasma, oral, 10 mg.kg^−1, mouse, oral 10 mg.kg^−1 / i.v. 5 mg.kg^−1) was > 90%. Also, the Cmax in [4] (BALB/c, plasma, intravenous 5 mg.kg^−1) worked out at 1600 ng/mL; in data set [4] (BALB/c, plasma, oral 10 mg.kg^−1) it was 1380 ng/mL. For the same molecule, the half-life in [4] (BALB/c, plasma, intravenous 5 mg.kg^−1, read-out: Apparent half-life, t1/2 (converted)) was 36 min. The clearance in data set [4] (BALB/c, plasma, intravenous 5 mg.kg^−1, read-out: Clearance CL) was determined as 80 mL/min/kg. For the same molecule, in data set [4] (BALB/c, plasma, oral 10 mg.kg^−1, read-out: Time of maximal concentration Tmax), the Tmax was 15 min. For the same molecule, the “Clearance CL” value in data set [4] (oral 10 mg.kg^−1) worked out at 98 mL·kg/min. In [4] (oral 10 mg.kg^−1 / i.v. 5 mg.kg^−1), the “Bioavailability (%)” value is 92%. Besides, in data set [5], the Off-target activity result is “does not have any significant off-target activity”. In the data set on BALB/c mice [6], the “CXCL1/KC increased number of adhering leukocytes” value is reported as “abolished”. Moreover, in the data set with BALB/c mice [6], the “CXCL1/KC increased number of rolling leukocytes” value was “abolished”. Besides, the “Influx of neutrophils in BALF” value in the data set on BALB/c mice [7] (PXS-4728A 0.2 or 2 mg.kg^−1, dexamethasone 10 mg.kg^−1, oral 1 hour prior) was “dampened migration significantly; also recorded: concentration-dependently reduced”. For the same molecule, the “Influx of total cells in BALF” value with BALB/c mice [7] (PXS-4728A 0.2 or 2 mg.kg^−1 oral 1 hour prior) is “concentration-dependently reduced”.
